Here are results for 25 molecules from patent US20240025884A1 (Dong-A ST Co., Ltd., priority 2022, published 2024).

GCN2, sequence (Q9P2K8 whole entry): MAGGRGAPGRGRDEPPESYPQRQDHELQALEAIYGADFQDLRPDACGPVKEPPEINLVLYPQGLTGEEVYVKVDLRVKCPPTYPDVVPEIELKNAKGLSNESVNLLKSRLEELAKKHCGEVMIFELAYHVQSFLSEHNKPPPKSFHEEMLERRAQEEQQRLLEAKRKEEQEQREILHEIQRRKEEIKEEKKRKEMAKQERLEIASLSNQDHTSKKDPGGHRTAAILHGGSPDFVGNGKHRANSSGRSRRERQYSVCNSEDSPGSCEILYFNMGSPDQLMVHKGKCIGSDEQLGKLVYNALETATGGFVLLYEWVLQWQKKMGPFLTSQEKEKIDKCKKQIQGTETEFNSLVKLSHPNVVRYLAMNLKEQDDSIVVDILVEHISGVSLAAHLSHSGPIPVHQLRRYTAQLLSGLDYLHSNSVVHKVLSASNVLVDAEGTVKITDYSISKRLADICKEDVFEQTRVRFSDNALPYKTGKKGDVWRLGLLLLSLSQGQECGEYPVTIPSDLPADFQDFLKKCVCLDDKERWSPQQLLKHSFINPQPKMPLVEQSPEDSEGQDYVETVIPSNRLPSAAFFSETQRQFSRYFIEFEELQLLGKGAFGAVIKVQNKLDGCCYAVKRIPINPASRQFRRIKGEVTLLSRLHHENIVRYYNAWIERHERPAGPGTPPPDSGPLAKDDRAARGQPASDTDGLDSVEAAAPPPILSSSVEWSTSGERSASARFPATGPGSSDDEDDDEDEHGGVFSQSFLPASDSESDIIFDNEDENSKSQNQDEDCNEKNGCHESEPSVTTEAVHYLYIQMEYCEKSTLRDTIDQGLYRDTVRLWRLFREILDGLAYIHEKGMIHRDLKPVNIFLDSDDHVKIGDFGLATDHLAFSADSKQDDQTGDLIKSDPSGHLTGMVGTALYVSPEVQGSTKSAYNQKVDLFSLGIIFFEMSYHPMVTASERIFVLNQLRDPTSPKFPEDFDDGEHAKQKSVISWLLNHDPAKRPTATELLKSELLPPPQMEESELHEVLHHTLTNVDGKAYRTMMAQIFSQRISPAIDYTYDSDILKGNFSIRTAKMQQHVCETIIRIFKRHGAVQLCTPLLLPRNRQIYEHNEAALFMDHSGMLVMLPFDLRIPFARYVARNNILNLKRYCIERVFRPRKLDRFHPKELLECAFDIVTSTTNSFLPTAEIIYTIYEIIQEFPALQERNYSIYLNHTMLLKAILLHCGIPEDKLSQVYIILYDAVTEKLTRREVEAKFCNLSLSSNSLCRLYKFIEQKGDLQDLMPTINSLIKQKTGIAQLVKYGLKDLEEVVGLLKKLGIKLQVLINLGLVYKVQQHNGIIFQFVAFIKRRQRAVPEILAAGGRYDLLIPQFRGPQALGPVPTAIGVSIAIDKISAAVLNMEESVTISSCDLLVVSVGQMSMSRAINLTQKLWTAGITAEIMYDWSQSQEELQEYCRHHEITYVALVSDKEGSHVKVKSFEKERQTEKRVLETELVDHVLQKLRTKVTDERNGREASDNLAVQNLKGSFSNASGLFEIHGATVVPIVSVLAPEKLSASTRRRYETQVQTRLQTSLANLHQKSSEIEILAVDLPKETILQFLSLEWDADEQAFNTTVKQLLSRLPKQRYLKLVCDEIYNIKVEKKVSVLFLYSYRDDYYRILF

This test concerns the target GCN2 (Homo sapiens (Human), UniProt Q9P2K8). The test can be described thus: GCN2 Biochemical Assay (TR-FRET, GFP-eIF2S1 substrate phosphorylation). Conditions: read-out: IC50 (GCN2 Inhibitory Activity). The procedure, abridged:
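TR-FRET readout (Ex 340, Em 490/520 nm) after 2–3 h with Tb-labelled phospho-eIF2S1 antibody in stop mix, following a 70 min room-temperature kinase step. Reaction: in-house GCN2, GFP-eIF2S1, ATP, tRNA in Tris pH 7.5 (2× stocks 1.6 nM, 50 nM, 0.2 mM); compounds tested at 10 concentrations, with a phospho-substrate artifact counter-plate.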
For the molecule `Cc1cnc(Nc2cc(C)n(C)n2)nc1-c1c[nH]c2c(NC(=O)CN3CC[C@H](Oc4ccnc(NC(C)C(F)(F)F)n4)C3)cccc12` (stereo partly drawn) [Example 201, N-(3-(2-((1,5-dimethyl-1H-pyrazol-3-yl)amino)-5-methylpyrimidin-4-yl)-1H-indol-7-yl)-2-((3S)-3-((2-((1,1,1-trifluoropropan-2-yl)amino)pyrimidin-4-yl)oxy)pyrrolidin-1-yl)acetamide], the IC50 is 10 to 100 nM.

Take `Cc1cnc(Nc2cc(C)n(C)n2)nc1-c1c[nH]c2c(NC(=O)CN3CC[C@H](Oc4ncc(F)c(N5CCN(C)CC5)n4)C3)cccc12` [Example 190, (S)-N-(3-(2-((1,5-dimethyl-1H-pyrazol-3-yl)amino)-5-methylpyrimidin-4-yl)-1H-indol-7-yl)-2-(3-((5-fluoro-4-(4-methylpiperazin-1-yl)pyrimidin-2-yl)oxy)pyrrolidin-1-yl)acetamide]: the 50% inhibitory concentration (IC50) is less than 10 nM.

`Cc1cnc(Nc2cc(C)n(C)n2)nc1-c1c[nH]c2c(N3Cc4c(/C=C/C(=O)NC(C)(C)C)cccc4C3=O)cccc12` [Example 371, (E)-N-(tert-butyl)-3-(2-(3-(2-((1,5-dimethyl-1H-pyrazol-3-yl)amino)-5-methylpyrimidin-4-yl)-1H-indol-7-yl)-1-oxoisoindolin-4-yl)acrylamide]: the half-maximal inhibitory concentration (IC50) is less than 10 nM. Under `Cc1cnc(Nc2cc(C)n(C)n2)nc1-c1c[nH]c2c(NC(=O)CN3CC[C@H](Oc4cc(NCCCO)ncn4)C3)cccc12` [Example 146, (S)-N-(3-(2-((1,5-dimethyl-1H-pyrazol-3-yl)amino)-5-methylpyrimidin-4-yl)-1H-indol-7-yl)-2-(3-((6-((3-hydroxypropyl)amino)pyrimidin-4-yl)oxy)pyrrolidin-1-yl)acetamide] stands less than 10 nM. Regarding `Cc1cnc(Nc2cc(C)n(C)n2)nc1-c1c[nH]c2c(NC(=O)CN3CC[C@H](Oc4nc(C(=O)NC5CC5)co4)C3)cccc12` [Example 127, (S)-N-cyclopropyl-2-((1-(2-((3-(2-((1,5-dimethyl-1H-pyrazol-3-yl)amino)-5-methylpyrimidin-4-yl)-1H-indol-7-yl)amino)-2-oxoethyl)pyrrolidin-3-yl)oxy)oxazole-4-carboxamide], the IC50 lay within 10 to 100 nM.

For the molecule `Cc1cc(-c2ccc(F)c3c2CN(c2cccc4c(-c5nc(Nc6cc(C)n(C)n6)ncc5C)c[nH]c24)C3=O)cc(C)n1` [Example 488, 2-(3-(2-((1,5-dimethyl-1H-pyrazol-3-yl)amino)-5-methylpyrimidin-4-yl)-1H-indol-7-yl)-4-(2,6-dimethylpyridin-4-yl)-7-fluoroisoindolin-1-one], the IC50 is less than 10 nM. For `Cc1cnc(Nc2cc(C)n(C)n2)nc1-c1c[nH]c2c(N3Cc4c(cccc4-c4cncc(N)c4)C3=O)cccc12` [Example 419, 4-(5-aminopyridin-3-yl)-2-(3-(2-((1,5-dimethyl-1H-pyrazol-3-yl)amino)-5-methylpyrimidin-4-yl)-1H-indol-7-yl)isoindolin-1-one], the IC50 is less than 10 nM.

Consider `Cc1cnc(Nc2cc(C)n(C)n2)nc1-c1c[nH]c2c(NC(=O)CN3CC[C@H](Oc4ccc(Cl)cc4)C3)cccc12` [Example 82, (S)-2-(3-(4-chlorophenoxy)pyrrolidin-1-yl)-N-(3-(2-((1,5-dimethyl-1H-pyrazol-3-yl)amino)-5-methylpyrimidin-4-yl)-1H-indol-7-yl)acetamide], for which the IC50 was in the range of 100 to 1000 nM. As for `CCCNc1cncc(O[C@H]2CCN(CC(=O)Nc3cccc4c(-c5nc(Nc6cc(C)n(C)n6)ncc5C)c[nH]c34)C2)n1` [Example 245, (S)-N-(3-(2-((1,5-dimethyl-1H-pyrazol-3-yl)amino)-5-methylpyrimidin-4-yl)-1H-indol-7-yl)-2-(3-((6-(propylamino)pyrazin-2-yl)oxy)pyrrolidin-1-yl)acetamide], the 50% inhibitory concentration (IC50) is 10 to 100 nM. In the case of `Cc1cnc(Nc2cc(C)n(C)n2)nc1-c1c[nH]c2c(N3Cc4cccc(C5=CCOCC5)c4C3=O)cccc12` [Example 385, 7-(3,6-dihydro-2H-pyran-4-yl)-2-(3-(2-((1,5-dimethyl-1H-pyrazol-3-yl)amino)-5-methylpyrimidin-4-yl)-1H-indol-7-yl)isoindolin-1-one], the IC50 lay within 10 to 100 nM. For `Cc1cnc(Nc2cc(C)n(C)n2)nc1-c1c[nH]c2c(N3Cc4c(/C=C/C(N)=O)cccc4C3=O)cccc12` [Example 358, (E)-3-(2-(3-(2-((1,5-dimethyl-1H-pyrazol-3-yl)amino)-5-methylpyrimidin-4-yl)-1H-indol-7-yl)-1-oxoisoindolin-4-yl)acrylamide] the value was less than 10 nM; for `Cc1cnc(Nc2cc(C)n(C)n2)nc1-c1c[nH]c2c(N3C(=O)c4cccc(O)c4C3=O)cccc12` [Example 263, 2-(3-(2-((1,5-dimethyl-1H-pyrazol-3-yl)amino)-5-methylpyrimidin-4-yl)-1H-indol-7-yl)-4-hydroxyisoindoline-1,3-dione], less than 10 nM; for `COc1cc(-c2ccc(F)c3c2CN(c2cccc4c(-c5nc(Nc6cc(C)n(C)n6)ncc5C)c[nH]c24)C3=O)ccn1` [Example 481, 2-(3-(2-((1,5-dimethyl-1H-pyrazol-3-yl)amino)-5-methylpyrimidin-4-yl)-1H-indol-7-yl)-7-fluoro-4-(2-methoxypyridin-4-yl)isoindolin-1-one], less than 10 nM. Under `CONc1nccc(O[C@H]2CCN(CC(=O)Nc3cccc4c(-c5nc(Nc6cc(C)n(C)n6)ncc5C)c[nH]c34)C2)n1` [Example 219, (S)-N-(3-(2-((1,5-dimethyl-1H-pyrazol-3-yl)amino)-5-methylpyrimidin-4-yl)-1H-indol-7-yl)-2-(3-((2-(methoxyamino)pyrimidin-4-yl)oxy)pyrrolidin-1-yl)acetamide] stands less than 10 nM; under `Cc1cnc(Nc2cc(C)n(C)n2)nc1-c1c[nH]c2c(NC(=O)CN3CC[C@H](Oc4nccc(C5=CCOCC5)n4)C3)cccc12` [Example 253, (S)-2-(3-((4-(3,6-dihydro-2H-pyran-4-yl)pyrimidin-2-yl)oxy)pyrrolidin-1-yl)-N-(3-(2-((1,5-dimethyl-1H-pyrazol-3-yl)amino)-5-methylpyrimidin-4-yl)-1H-indol-7-yl)acetamide], 10 to 100 nM; under `Cc1cnc(Nc2cc(C)n(C)n2)nc1-c1c[nH]c2c(N3Cc4cc(-c5ccccc5)ccc4C3=O)cccc12` [Example 378, 2-(3-(2-((1,5-dimethyl-1H-pyrazol-3-yl)amino)-5-methylpyrimidin-4-yl)-1H-indol-7-yl)-5-phenylisoindolin-1-one], greater than 1000 nM. For `Cc1cnc(Nc2cc(C)n(C)n2)nc1-c1c[nH]c2c(NC(=O)CN3CC[C@H](Oc4ccnc(NC5CC5)n4)C3)c(F)ccc12` [Example 1, (S)-2-(3-((2-(cyclopropylamino)pyrimidin-4-yl)oxy)pyrrolidin-1-yl)-N-(3-(2-((1,5-dimethyl-1H-pyrazol-3-yl)amino)-5-methylpyrimidin-4-yl)-6-fluoro-1H-indol-7-yl)acetamide] the value was less than 10 nM; for `Cc1cnc(Nc2cc(C)n(C)n2)nc1-c1c[nH]c2c(N3Cc4c(-c5cccnc5)ccnc4C3=O)cccc12` [Example 495, 6-(3-(2-((1,5-dimethyl-1H-pyrazol-3-yl)amino)-5-methylpyrimidin-4-yl)-1H-indol-7-yl)-4-(pyridin-3-yl)-5,6-dihydro-7H-pyrrolo[3,4-b]pyridin-7-one], less than 10 nM; for `Cc1cnc(Nc2cc(C)n(C)n2)nc1-c1c[nH]c2c(N3Cc4c(-c5ccncc5)ccc(F)c4C3=O)cccc12` [Example 480, 2-(3-(2-((1,5-dimethyl-1H-pyrazol-3-yl)amino)-5-methylpyrimidin-4-yl)-1H-indol-7-yl)-7-fluoro-4-(pyridin-4-yl)isoindolin-1-one], less than 10 nM. As to `COc1cc(-c2cccc3c2CN(c2cccc4c(-c5nc(Nc6cc(C)n(C)n6)ncc5C)c[nH]c24)C3=O)c(F)cn1` [Example 403, 2-(3-(2-((1,5-dimethyl-1H-pyrazol-3-yl)amino)-5-methylpyrimidin-4-yl)-1H-indol-7-yl)-4-(5-fluoro-2-methoxypyridin-4-yl)isoindolin-1-one], the IC50 is 10 to 100 nM. For the molecule `Cc1cnc(Nc2cc(C)n(C)n2)nc1-c1c[nH]c2c(N3Cc4cccc(NC(=O)c5ccccc5)c4C3=O)cccc12` [Example 293, N-(2-(3-(2-((1,5-dimethyl-1H-pyrazol-3-yl)amino)-5-methylpyrimidin-4-yl)-1H-indol-7-yl)-3-oxoisoindolin-4-yl)benzamide], the concentration for half-maximal inhibition (IC50) is 100 to 1000 nM.

As to `Cc1cnc(Nc2cc(C)n(C)n2)nc1-c1c[nH]c2c(N3Cc4ccc(-c5ccncc5)cc4C3=O)cccc12` [Example 380, 2-(3-(2-((1,5-dimethyl-1H-pyrazol-3-yl)amino)-5-methylpyrimidin-4-yl)-1H-indol-7-yl)-6-(pyridin-4-yl)isoindolin-1-one], the IC50 was less than 10 nM. Under `Cc1cnc(Nc2cc(C)n(C)n2)nc1-c1c[nH]c2c(N3Cc4c(cccc4-c4ccnc(C#N)c4)C3=O)cccc12` [Example 469, 4-(2-(3-(2-((1,5-dimethyl-1H-pyrazol-3-yl)amino)-5-methylpyrimidin-4-yl)-1H-indol-7-yl)-1-oxoisoindolin-4-yl)picolinonitrile] stands less than 10 nM; under `Cc1cnc(Nc2cc(C)n(C)n2)nc1-c1c[nH]c2c(N3Cc4c(cccc4-c4ccncc4N)C3=O)cccc12` [Example 447, 4-(3-aminopyridin-4-yl)-2-(3-(2-((1,5-dimethyl-1H-pyrazol-3-yl)amino)-5-methylpyrimidin-4-yl)-1H-indol-7-yl)isoindolin-1-one], less than 10 nM; under `Cc1cnc(Nc2cc(C)n(C)n2)nc1-c1c[nH]c2c(N3Cc4c(cccc4-c4ccc(Cl)nc4)C3=O)cccc12` [Example 405, 4-(6-chloropyridin-3-yl)-2-(3-(2-((1,5-dimethyl-1H-pyrazol-3-yl)amino)-5-methylpyrimidin-4-yl)-1H-indol-7-yl)isoindolin-1-one], 10 to 100 nM.
